Results reported in article PMC7108291 (Spectrochimica Acta. Part A, Molecular and Biomolecular …, 2009).

Assays:
Experiment in all cases: tryptophan fluorescence quenching titration at […] °C
Assay type in all cases: binding
[1] = target: DNase I (Bos taurus, UniProt P00639)
[2] = target: Taq polymerase (Thermus aquaticus, UniProt P19821)
[3] = target: T1, RNase A (Bos taurus, UniProt P61823)
T1 sequence (P61823 27-150): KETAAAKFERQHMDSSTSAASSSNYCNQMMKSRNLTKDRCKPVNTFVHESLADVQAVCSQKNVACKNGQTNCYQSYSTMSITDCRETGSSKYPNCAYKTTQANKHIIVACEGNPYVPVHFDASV

Sequence of Taq polymerase (P19821 whole entry): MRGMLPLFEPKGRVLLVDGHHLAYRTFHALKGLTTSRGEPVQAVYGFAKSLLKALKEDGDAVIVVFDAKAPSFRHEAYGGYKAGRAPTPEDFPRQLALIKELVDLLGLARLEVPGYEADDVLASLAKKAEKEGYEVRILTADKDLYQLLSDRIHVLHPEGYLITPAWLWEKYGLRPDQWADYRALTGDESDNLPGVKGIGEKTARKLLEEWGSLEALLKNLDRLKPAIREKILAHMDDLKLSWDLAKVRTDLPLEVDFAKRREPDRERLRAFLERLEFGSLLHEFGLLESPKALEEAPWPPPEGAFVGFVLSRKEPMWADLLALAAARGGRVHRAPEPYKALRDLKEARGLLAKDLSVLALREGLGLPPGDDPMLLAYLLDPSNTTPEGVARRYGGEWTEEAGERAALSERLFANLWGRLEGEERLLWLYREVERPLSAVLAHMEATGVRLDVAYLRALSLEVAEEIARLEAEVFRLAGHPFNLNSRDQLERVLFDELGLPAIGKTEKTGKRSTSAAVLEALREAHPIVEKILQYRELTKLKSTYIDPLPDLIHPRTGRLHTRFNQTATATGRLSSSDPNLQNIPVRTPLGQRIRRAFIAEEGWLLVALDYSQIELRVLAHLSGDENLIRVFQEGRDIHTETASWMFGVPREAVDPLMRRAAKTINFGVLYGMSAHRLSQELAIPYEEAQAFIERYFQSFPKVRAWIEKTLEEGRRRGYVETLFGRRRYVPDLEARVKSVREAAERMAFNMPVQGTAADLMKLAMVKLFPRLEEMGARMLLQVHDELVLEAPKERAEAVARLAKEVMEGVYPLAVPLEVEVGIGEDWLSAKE
Sequence of DNase I (P00639 23-282): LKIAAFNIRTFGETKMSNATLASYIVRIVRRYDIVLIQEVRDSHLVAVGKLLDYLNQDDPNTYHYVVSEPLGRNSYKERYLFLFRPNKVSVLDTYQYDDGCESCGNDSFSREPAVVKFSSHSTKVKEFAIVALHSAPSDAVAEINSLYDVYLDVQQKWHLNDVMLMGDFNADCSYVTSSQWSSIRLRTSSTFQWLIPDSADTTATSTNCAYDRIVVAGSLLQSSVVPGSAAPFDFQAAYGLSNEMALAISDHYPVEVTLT

Kd [1]: 9.02 µM | Kd [2]: 82 µM | Kd [3]: 2.33 µM
Structure (SMILES): O=C(O)C1=CC(=C(c2ccc(O)c(C(=O)O)c2)c2ccc(O)c(C(=O)O)c2)C=CC1=O [ATA, aurintricarboxylic acid]
